According to US6001829A, “Fluoropropenyl oxadiazoles and the use thereof as pest control agents” (Bayer Aktiengesellschaft, priority 1995, dated 1999):
Read-outs that look alike come from different tables or passages of the source.

Experiments:
[1] = test system: caterpillars of the diamond back moth (Plutella xylostella); experiment: Plutella Test; type: in vivo; conditions: 168 h, 0.1% active compound, after 7 days, dipped cabbage leaves, read-out: kill
Procedure: (§1) Solvent: 7 parts by weight of dimethylformamide
(§2) Emulsifier: 1 part by weight of alkylaryl polyglycol ether
(§3) To produce a suitable preparation of active compound, 1 part by weight of active compound is mixed with the stated amount of solvent and the stated amount of emulsifier, and the concentrate is diluted with water to the desired concentration.
Cabbage leaves (Brassica oleracea) are treated by being dipped into the active compound preparation of the desired concentration and are populated with caterpillars of the diamond back moth (Plutella xylostella) while the leaves are still moist.
(§4) After the desired period of time, the kill in % is determined. 100% means that all the caterpillars have been killed, 0% means that none of the caterpillars have been killed.

[2] = log p: n-octanol/water partition coefficient determined by reverse phase HPLC analysis using H2O/CH3CN; type: physicochemical
Description: *log p: logarithm to base ten of the noctanol/water partition coefficient
determined by reverse phase HPLC analysis using H2 O/CH3 CN.

[3] = test system: all larval stages of Lucilia cuprina (OP resistent); experiment: Test with Fly Larvae/Development-Inhibitory Action; type: in vivo; conditions: 1000 ppm active compound, on horse meat, larvicidal effect after 48 h
Procedure: Test with Fly Larvae/Development-Inhibitory Action
all larval stages of Lucilia cuprina (OP resistent)
[pupae and adults (without contact with the active
Solvent: 35 parts by weight of ethylene glycol monomethyl ether
35 parts by weight of nonylphenol polyglycol ether
To produce a suitable preparation, 3 parts by weight of the active compound are mixed with 7 parts by weight of the abovementioned solvent-emulsifier mixture, and the resulting emulsion concentrate is diluted with water to the concentration desired in each case.
For each concentration, 30 to 50 larvae are introduced into a test tube which contains horse meat (1 cm^3). 500 μl of the dilution to be tested are pipetted onto this horse meat. The test tubes are placed in plastic beakers whose bottom is covered with sea sand, and kept in an air-conditioned room (26° C.±1.5° C., 70%±10% relative humidity). The activity is examined (larvicidal action) after 24 hours and 48 hours. After emergence of the larvae (about 72 h), the test tubes are removed and perforated plastic lids are fitted onto the beakers. After 1.5 times the development time (hatching of control flies), the hatched flies and the pupae/cocoons are counted.
The activity criterion is the incidence of death in the treated larvae after 48 h (larvicidal effect), or the inhibition of hatching of adults from pupae or the inhibition of pupae formation. The criterion for the in vitro activity of a substance is the inhibition of the development of the […], or a development standstill before the adult stage. 100% larvicidal action means that all the larvae have been killed after 48 hours. 100% development-inhibitory action means that no adult flies have hatched.

Meloidogyne incognita = experiment: Critical Concentration Test/Nematodes; type: in vivo; conditions: 20 ppm active compound in soil; after four weeks; lettuce roots (root galls)
Procedure: Critical Concentration Test/Nematodes
Solvent: 4 parts by weight of acetone
as §2
To produce a suitable preparation of active compound, 1 part by weight of active compound is mixed with the stated amount of solvent, the stated amount of emulsifier is added and the concentrate is diluted with water to the desired concentration.
The active compound preparation is intimately mixed with soil which is heavily infested with the test nematodes. The active compound concentration in the preparation is immaterial, only the amount of active compound per unit volume of soil, which is given in ppm (=mg/l), matters. The treated soil is transferred into pots, lettuce seeds are sown, and the pots are kept at a greenhouse temperature of 25° C.
After four weeks, the lettuce roots are checked for infestation with nematodes (root galls) and the efficacy of the active compound in % is determined. The efficacy is 100% when infestation is avoided completely and 0% when the infestation level is just as high as in the control plants in untreated, but equally infested, soil.

[4] = test system: black bean aphid (Aphis fabae); experiment: Myzus Test (Duration of Activity after Spraying); type: in vivo; conditions: 0.1% active compound, dipped bean shoots, time not stated, read-out: kill
Procedure: Myzus Test (Duration of Activity after Spraying)
as §1, §2, §3
Bean shoots (Vicia faba) which are heavily infested by the black bean aphid (Aphis fabae) are treated by being dipped into the active compound preparation of the desired concentration.
After the desired period of time, the kill in % is determined. 100% means that all aphids have been killed, 0% means that none of the aphids have been killed.

[5] = test system: caterpillars of the owlet moth Spodoptera frugiperda; experiment: Spodoptera Test; type: in vivo; conditions: 168 h, 0.1% active compound, after 7 days, dipped cabbage leaves, read-out: kill
Procedure: as §1, §2, §3
Cabbage leaves (Brassica oleracea) are treated by being dipped into the active compound preparation of the desired concentration and are populated with caterpillars of the owlet moth Spodoptera frugiperda) while the leaves are still moist.
as §4

[6] = test system: mustard beetle larvae (Phaedon cochleariae); experiment: Phaedon Larvae Test; type: in vivo; conditions: 168 h, 0.1% active compound, after 7 days, dipped cabbage leaves, read-out: kill
Procedure: as §1, §2, §3
Cabbage leaves (Brassica oleracea) are treated by being dipped into the active compound preparation of the desired concentration and are populated with mustard beetle larvae (Phaedon cochleariae) while the leaves are still moist.
After the desired period of time, the kill in % is determined. 100% means that all the beetle larvae have been killed, 0% means that none of the beetle larvae have been killed.

[7] = test system: Boophilus Microplus Resistent/SP-Resistent Parkhurst Strain; experiment: Test with Boophilus Microplus Resistent/SP-Resistent Parkhurst Strain; type: in vivo; conditions: 200 μg/animal; injected into the abdomen; adult females which have sucked themselves full
Procedure: Test with Boophilus Microplus Resistent/SP-Resistent Parkhurst Strain
Adult females which have sucked themselves full […]
The test is carried out in 5 replications. I μl of the solutions is injected into the abdomen, and the animals are transferred into dishes and kept in an air-conditioned room. The activity is determined via the inhibition of oviposition. 100% means that no tick has deposited eggs.

[8] = test system: larvae of the green rice leaf hopper (Nephotettix cincticeps); experiment: Nephotettix Test; type: in vivo; conditions: 144 h, read-out: kill
Procedure: as §1, §2, §3
Rice seedlings (Oryzae sativa) are treated by being dipped into the active compound preparation of the desired concentration and are populated with larvae of the green rice leaf hopper (Nephotettix cincticeps) while the seedlings are still moist.
After the desired period of time, the kill in % is determined. 100% means that all the leaf hoppers have been killed; 0% means that none of the leaf hoppers have been killed.

Row | Structure (SMILES) | mortality at 0.1 % strength [1] | chromatographic logP ([2]; pH 2) | inhibition at 1000 ppm [3] | chromatographic logP ([2]; pH 7.5) | mortality at 0.1 % strength [5] | mortality at 0.1 % strength [6] | other results
1 | FC(F)=C(F)Cc1nc(-c2ccccc2Cl)no1 [Example 5] | ≥ 90% | 3.3 | 100% | – | – | – | –
2 | FC(F)=C(F)Cc1nnc(-c2cccs2)o1 [Example 10] | – | – | – | 2.19 | – | – | efficacy (Meloidogyne incognita): 100%
3 | FC(F)=C(F)Cc1nc(-c2cc(Cl)cc(Cl)c2)no1 [Example 6] | – | 4.72 | – | – | – | – | –
4 | Cc1ccc(-c2noc(CC(F)=C(F)F)n2)cc1 [Example 1, 3-(4-methylphenyl)-5-(2,3,3-trifluoroprop-2-enyl)-1,2,4-oxadiazole] | ≥ 90% | – | – | – | ≥ 85% | 100% | mortality at 0.1 % strength [4]: 90%; activity (inhibition of oviposition) [7]: 100%; mortality at 0.1 % strength [8]: 100%
5 | FC(F)=C(F)Cc1nc(CCl)no1 [Example 4] | – | – | – | – | – | – | chromatographic logP ([2]; pH not stated): 2.08
6 | FC(F)=C(F)Cc1nc(-c2ccccc2)no1 [Example 7] | ≥ 90% | 3.2 | 100% | – | ≥ 85% | 100% | –
7 | FC(F)=C(F)Cc1nnc(-c2ccc(Cl)cc2)o1 [Example 2, 2-(4-chlorophenyl)-5-(2,3,3-trifluoroprop-2-enyl)-1,3-4-oxadiazole] | ≥ 90% | – | – | – | – | 100% | mortality at 0.1 % strength [4]: 80%; mortality at 0.1 % strength [8]: 100%
8 | COc1ccc(-c2nnc(CC(F)=C(F)F)o2)cc1 [Example 8] | ≥ 90% | – | – | 2.46 | – | – | –
9 | FC(F)=C(F)Cc1nnc(-c2ccco2)o1 [Example 9] | – | – | – | 1.89 | – | – | –
10 | FC(F)=C(F)Cc1nc(-c2c(Cl)cccc2Cl)no1 [Example 3] | ≥ 90% | 3.44 | 100% | – | ≥ 85% | – | mortality at 0.1 % strength ([8]; 0.1% active compound, after 6 days, dipped rice seedlings): 100%
